Laboratory results published in ChEMBL document CHEMBL1201862, “PubChem BioAssay data set” (2004).
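Five compound concentrations were applied to cells in 96-well plates for 48 hours; endpoints were derived by simple linear interpolation of the resulting dose-response curve. Here, GI50 denotes the concentration required for 50% inhibition of growth.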 Active and inactive are the calls of the source. Cut-off read from the data, not from the text of the source: active = GI50 up to about 1.1 µM and inactive = higher.

Legend:
Test in all cases: inhibition of tumour cell growth, NCI panel, 48 h
NCI-H522 = system: NCI-H522
SNB-78 = system: SNB-78
K562 = system: K562
DMS-273 = system: DMS-273
DMS-114 = system: DMS-114
786-0 = system: 786-0
HT-29 = system: HT-29
HOP-18 = system: HOP-18
IGROV-1 = system: IGROV-1
HL-60 = system: HL-60
COLO 205 = system: COLO 205
LXFL 529 = system: LXFL 529
U-251 = system: U-251
SW-620 = system: SW-620
SF-295 = system: SF-295
DLD-1 = system: DLD-1
ACHN = system: ACHN
OVCAR-5 = system: OVCAR-5
CAKI-1 = system: CAKI-1
SF-268 = system: SF-268
HCC 2998 = system: HCC 2998
XF498 = system: XF498
SK-MEL-28 = system: SK-MEL-28
Malme-3M = system: Malme-3M
SNB-75 = system: SNB-75
M14 = system: M14
OVCAR-8 = system: OVCAR-8
HCT-116 = system: HCT-116
LOX IMVI = system: LOX IMVI
OVCAR-4 = system: OVCAR-4
RXF 631 = system: RXF 631
MOLT-4 = system: MOLT-4
HOP-62 = system: HOP-62
M19-MEL = system: M19-MEL
CCRF-CEM = system: CCRF-CEM
SR = system: SR
SK-MEL-5 = system: SK-MEL-5
NCI-H460 = system: NCI-H460
RXF 393 = system: RXF 393
SNB-19 = system: SNB-19
KM12 = system: KM12
TK-10 = system: TK-10
UO-31 = system: UO-31
OVCAR-3 = system: OVCAR-3
UACC-62 = system: UACC-62
NCI-H23 = system: NCI-H23
SN12C = system: SN12C
HOP-92 = system: HOP-92
A549 = system: A549
UACC-257 = system: UACC-257
SF-539 = system: SF-539
EKVX = system: EKVX
SK-OV-3 = system: SK-OV-3
NCI-H226 = system: NCI-H226
SK-MEL-2 = system: SK-MEL-2
A498 = system: A498
KM-20L2 = system: KM-20L2
HCT-15 = system: HCT-15
RPMI-8226 = system: RPMI-8226

SMILES: O=S1(=O)CSc2ccc3ccccc3c2-c2c1ccc1ccccc21
- GI50 (NCI-H522): > 100 µM (inactive)
- GI50 (SNB-78): > 100 µM (inactive)
- GI50 (K562): > 100 µM (inactive)
- GI50 (DMS-273): > 100 µM (inactive)
- GI50 (DMS-114): > 100 µM (inactive)
- GI50 (786-0): > 100 µM (inactive)
- GI50 (HT-29): > 100 µM (inactive)
- GI50 (HOP-18): > 100 µM (inactive)
- GI50 (IGROV-1): > 100 µM (inactive)
- GI50 (HL-60): > 100 µM (inactive)
- GI50 (COLO 205): > 100 µM (inactive)
- GI50 (LXFL 529): > 100 µM (inactive)
- GI50 (U-251): > 100 µM (inactive)
- GI50 (SW-620): > 100 µM (inactive)
- GI50 (SF-295): > 100 µM (inactive)
- GI50 (DLD-1): > 100 µM (inactive)
- GI50 (ACHN): > 100 µM (inactive)
- GI50 (OVCAR-5): > 100 µM (inactive)
- GI50 (CAKI-1): > 100 µM (inactive)
- GI50 (SF-268): > 100 µM (inactive)
- GI50 (HCC 2998): > 100 µM (inactive)
- GI50 (XF498): > 100 µM (inactive)
- GI50 (SK-MEL-28): > 100 µM (inactive)
- GI50 (Malme-3M): > 100 µM (inactive)
- GI50 (SNB-75): > 100 µM (inactive)
- GI50 (M14): > 100 µM (inactive)
- GI50 (OVCAR-8): > 100 µM (inactive)
- GI50 (HCT-116): > 100 µM (inactive)
- GI50 (LOX IMVI): > 100 µM (inactive)
- GI50 (OVCAR-4): > 100 µM (inactive)
- GI50 (RXF 631): > 100 µM (inactive)
- GI50 (MOLT-4): > 100 µM (inactive)
- GI50 (HOP-62): > 100 µM (inactive)
- GI50 (M19-MEL): > 100 µM (inactive)
- GI50 (CCRF-CEM): > 100 µM (inactive)
- GI50 (SR): > 100 µM (inactive)
- GI50 (SK-MEL-5): > 100 µM (inactive)
- GI50 (NCI-H460): > 100 µM (inactive)
- GI50 (RXF 393): > 100 µM (inactive)
- GI50 (SNB-19): > 100 µM (inactive)
- GI50 (KM12): > 100 µM (inactive)
- GI50 (TK-10): > 100 µM (inactive)
- GI50 (UO-31): > 100 µM (inactive)
- GI50 (OVCAR-3): > 100 µM (inactive)
- GI50 (UACC-62): > 100 µM (inactive)
- GI50 (NCI-H23): > 100 µM (inactive)
- GI50 (SN12C): > 100 µM (inactive)
- GI50 (HOP-92): > 100 µM (inactive)
- GI50 (A549): > 100 µM (inactive)
- GI50 (UACC-257): > 100 µM (inactive)
- GI50 (SF-539): > 100 µM (inactive)

SMILES: CCOC(=O)C(=O)Nc1c(C(C)C)cccc1C(C)C
- GI50 (NCI-H522): > 100 µM (inactive)
- GI50 (SNB-78): > 100 µM (inactive)
- GI50 (DMS-273): > 100 µM (inactive)
- GI50 (DMS-114): > 100 µM (inactive)
- GI50 (786-0): > 100 µM (inactive)
- GI50 (HT-29): > 100 µM (inactive)
- GI50 (HOP-18): > 100 µM (inactive)
- GI50 (IGROV-1): > 100 µM (inactive)
- GI50 (HL-60): > 100 µM (inactive)
- GI50 (COLO 205): > 100 µM (inactive)
- GI50 (EKVX): > 100 µM (inactive)
- GI50 (LXFL 529): > 100 µM (inactive)
- GI50 (U-251): > 100 µM (inactive)
- GI50 (SW-620): > 100 µM (inactive)
- GI50 (SF-295): > 100 µM (inactive)
- GI50 (DLD-1): > 100 µM (inactive)
- GI50 (ACHN): > 100 µM (inactive)
- GI50 (SK-OV-3): > 100 µM (inactive)
- GI50 (CAKI-1): > 100 µM (inactive)
- GI50 (SF-268): > 100 µM (inactive)
- GI50 (HCC 2998): > 100 µM (inactive)
- GI50 (XF498): 54.6 µM (inactive)
- GI50 (NCI-H226): > 100 µM (inactive)
- GI50 (SK-MEL-28): > 100 µM (inactive)
- GI50 (Malme-3M): > 100 µM (inactive)
- GI50 (SK-MEL-2): > 100 µM (inactive)
- GI50 (SNB-75): > 100 µM (inactive)
- GI50 (M14): > 100 µM (inactive)
- GI50 (OVCAR-8): > 100 µM (inactive)
- GI50 (HCT-116): > 100 µM (inactive)
- GI50 (A498): > 100 µM (inactive)
- GI50 (KM-20L2): > 100 µM (inactive)
- GI50 (OVCAR-4): > 100 µM (inactive)
- GI50 (RXF 631): > 100 µM (inactive)
- GI50 (MOLT-4): > 100 µM (inactive)
- GI50 (HOP-62): > 100 µM (inactive)
- GI50 (M19-MEL): > 100 µM (inactive)
- GI50 (CCRF-CEM): > 100 µM (inactive)
- GI50 (SR): > 100 µM (inactive)
- GI50 (SK-MEL-5): > 100 µM (inactive)
- GI50 (NCI-H460): > 100 µM (inactive)
- GI50 (RXF 393): > 100 µM (inactive)
- GI50 (SNB-19): > 100 µM (inactive)
- GI50 (KM12): > 100 µM (inactive)
- GI50 (TK-10): > 100 µM (inactive)
- GI50 (UO-31): > 100 µM (inactive)
- GI50 (OVCAR-3): > 100 µM (inactive)
- GI50 (UACC-62): > 100 µM (inactive)
- GI50 (NCI-H23): > 100 µM (inactive)
- GI50 (SN12C): > 100 µM (inactive)
- GI50 (HCT-15): > 100 µM
- GI50 (HOP-92): > 100 µM (inactive)
- GI50 (A549): > 100 µM (inactive)
- GI50 (UACC-257): > 100 µM (inactive)
- GI50 (SF-539): > 100 µM (inactive)

SMILES: COc1cccc(/C=C(/C(=O)O)c2cc(OC)c(OC)c(OC)c2)c1
- GI50 (NCI-H522): > 100 µM (inactive)
- GI50 (SNB-78): > 100 µM (inactive)
- GI50 (RPMI-8226): > 100 µM (inactive)
- GI50 (K562): 51.8 µM (inactive)
- GI50 (DMS-273): > 100 µM (inactive)
- GI50 (DMS-114): > 100 µM (inactive)
- GI50 (786-0): > 100 µM (inactive)
- GI50 (HT-29): > 100 µM (inactive)
- GI50 (HOP-18): > 100 µM (inactive)
- GI50 (IGROV-1): > 100 µM (inactive)
- GI50 (HL-60): 66.5 µM (inactive)
- GI50 (COLO 205): > 100 µM (inactive)
- GI50 (EKVX): > 100 µM (inactive)
- GI50 (LXFL 529): > 100 µM (inactive)
- GI50 (U-251): > 100 µM (inactive)
- GI50 (SW-620): > 100 µM (inactive)
- GI50 (SF-295): > 100 µM (inactive)
- GI50 (DLD-1): > 100 µM (inactive)
- GI50 (ACHN): > 100 µM (inactive)
- GI50 (CAKI-1): > 100 µM (inactive)
- GI50 (SF-268): > 100 µM (inactive)
- GI50 (XF498): 37.8 µM (inactive)
- GI50 (NCI-H226): > 100 µM (inactive)
- GI50 (SK-MEL-28): > 100 µM (inactive)
- GI50 (Malme-3M): > 100 µM (inactive)
- GI50 (SNB-75): > 100 µM (inactive)
- GI50 (M14): > 100 µM (inactive)
- GI50 (OVCAR-8): > 100 µM (inactive)
- GI50 (HCT-116): > 100 µM (inactive)
- GI50 (LOX IMVI): > 100 µM (inactive)
- GI50 (A498): > 100 µM (inactive)
- GI50 (KM-20L2): > 100 µM (inactive)
- GI50 (OVCAR-4): > 100 µM (inactive)
- GI50 (RXF 631): > 100 µM (inactive)
- GI50 (MOLT-4): > 100 µM (inactive)
- GI50 (HOP-62): > 100 µM (inactive)
- GI50 (M19-MEL): > 100 µM (inactive)
- GI50 (CCRF-CEM): 46.5 µM (inactive)
- GI50 (SK-MEL-5): > 100 µM (inactive)
- GI50 (NCI-H460): > 100 µM (inactive)
- GI50 (RXF 393): 45.2 µM (inactive)
- GI50 (SNB-19): > 100 µM (inactive)
- GI50 (KM12): > 100 µM (inactive)
- GI50 (TK-10): > 100 µM (inactive)
- GI50 (UO-31): > 100 µM (inactive)
- GI50 (OVCAR-3): > 100 µM (inactive)
- GI50 (UACC-62): > 100 µM (inactive)
- GI50 (SN12C): > 100 µM (inactive)
- GI50 (HCT-15): > 100 µM
- GI50 (HOP-92): 92.3 µM (inactive)
- GI50 (A549): > 100 µM (inactive)
- GI50 (UACC-257): > 100 µM (inactive)
- GI50 (SF-539): > 100 µM (inactive)
